The values that follow come from patent publication US20100286280A1, “INHIBITORS OF EPPIN/SEMENOGELIN BINDING AS MALE CONTRACEPTIVES” (The University of North Carolina at Chapel Hill, priority 2007, published 2010).

“Also recorded” adds a separate entry of the source.

Assay [1] addresses T1, recombinant Eppin binding to recombinant semenogelin (Homo sapiens, UniProt O95925).
T1 construct: made in house; host or cells: E. coli strain M15 [pREP-4]
The assay is described as follows: Eppin-semenogelin in vitro binding assay (96-well ELISA format, absorption at 450 nm). The following applies: Eppin preincubated with compound dilutions starting at 40 μg/ml; OD 450 nm (FIG. 4). Here is the method:
In one embodiment, His-tagged recombinant semenogelin is bound to the individual wells of the plate, FLAG-tagged recombinant Eppin is bound to the semenogelin. The recombinant Eppin and recombinant semenogelin will form a complex. Compounds are then individually added to the wells of the plate and allowed to interfere with the Eppin-semenogelin complex formation. An anti-FLAG antibody (such as the M2 antibody sold by Sigma-Aldrich) is then added to the wells of the plate. The inhibition of the binding of Eppin to semenogelin is determined by looking for changes in Eppin-semenogelin binding when the anti-FLAG antibody (such as those used in commercially-available ELISA assays) is added. One can detect the binding of the anti-FLAG antibody to the FLAG tagged Eppin, for example, by looking at the absorption at 450 nm. In another embodiment, compounds are incubated with FLAG-tagged recombinant Eppin before being added to Sg. The anti-FLAG antibody is added after the Eppin-compound mixtures are added to the wells of the plate.
Recombinant Eppin and semenogelin are as described in Wang et al., Biology of Reproduction, 72:1064-1070 (2005). The recombinant Eppin used in the assays described herein has been tagged with a FLAG tag. The recombinant semenogelin is a His-tagged recombinant protein of the fragment of semenogelin starting with amino acid 164 and continuing to amino acid 283. […]

The test system of a further assay is human spermatozoa. The assay is described as follows: Human sperm motility assay with Compound A4. The assay is classed as cell-based. The text has this:
Human spermatozoa were obtained from the UNC-Hospital clinic, washed and used for testing in a motility assay. Compound A4 reduced the total number of motile sperm in an ejaculate to <10% within one hour. The data are shown below in FIGS. 5 and 6, and in Tables 2 and 3.

T1 sequence (O95925 22-133): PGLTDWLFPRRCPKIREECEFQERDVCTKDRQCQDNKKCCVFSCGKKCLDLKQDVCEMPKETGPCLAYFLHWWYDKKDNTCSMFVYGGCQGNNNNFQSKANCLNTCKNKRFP

On to `Cl.NC(=O)CNCC(N)=O` [Compound A4], for which the “inhibition of Eppin-semenogelin binding” value in assay [1] is given as “effective at inhibiting this binding in a dose dependent manner; also recorded: inhibited Eppin-semenogelin binding in a dose dependent manner”. Besides, in the assay on human spermatozoa (Table 2, swim up + A4 + 1 hr), the Velocity is on record as 15 μm/sec and the total distance was found to be 222 μm. Moreover, in the assay on human spermatozoa (Table 3, swim up + 1 hour), the “% Motility” value is 7%, the Average velocity is given as 14.9 μm/sec, the Distance is on record as 222 μm and the Straight distance turned out to be 48.7 μm. Moreover, the “inhibition of sperm motility (in words)” value in the assay with human spermatozoa (human spermatozoa) was “inhibits their motility, significantly reducing their forward velocity and distance traveled; also recorded: effective at inhibiting sperm motility”. Also, the “total number of motile sperm in an ejaculate” value in the assay on human spermatozoa (within one hour) was under 10%.
